Laboratory results reported in patent publication US8846626B2, “Drug composition for treating chronic liver disease and its application” (Shuguang Hospital Affiliated with Shanghai University of …, priority 2010, dated 2014).

Experiments:
[1] = system: DMN-induced rat liver fibrosis model; test: DMN-induced rat liver fibrosis model, orthogonal design; format: in vivo, Wistar male rats
Excerpt: The DMN-induced rat liver fibrosis model and analysis of orthogonal design is used to obtain the optimal ratio of the composition to lower collagen content in the liver.
160 Wistar male rats, (40 in normal group, 120 in the model group), clean level, body weight (150±10) g, provided by the Shanghai Experimental Animal Center of Chinese Academy of Sciences, and is fed, modeled, and observed in Clean Animal room of Shanghai Medical University Experimental Animal Center, free access to water.
Astragalus Astragalosides and Glycyrrhiza Acid are mixed by weight ratio 3:1, 4:1, 5:1 and 6:1, drug composition A+B in different proportions are randomly selected for subsequent experiments.
Referring to Ala-Kokko method of modeling (Ala-Kokko L, Pihlajaniemi T, Myers J C et al. Gene expression of type I, III and IV collagens in liver fibrosis induced by dimethylnitrosamine in the rat. Biochem J 1987; 244: 75-9.) DMN is diluted with saline into 0.5% solution, in the model group, 120 rats are intraperitoneally injected by […] dose, once per day, on the beginning 3 days of a week, for 4 weeks. In normal control group, 40 rats are intraperitoneally injected with normal saline of same dose.
Respectively at the end of three days of modeling, the end of two weeks of modeling, the end of three weeks of modeling, and the end of four weeks of modeling, 10 normal rats, 10 model rats are observed as a model of dynamic observation. Starting from the end of 2 weeks of modeling, the model rats were randomly divided into 1-6 groups of orthogonal design and model group, each having 10 rats. While continuing modeling, the groups of orthogonal design are intervened by eight times of clinical dose amount of a 65 kg adult body weight, administrated respectively in accordance with design amount. Before using, the drug composition is diluted with 10 ml of distilled water, and is processed with intragastric administration according to 10 ml/kg rat body weight dose, once daily for 2 weeks. And normal control rats (10) and model control group (10) are set; rats in the normal group and the model control groups are processed with intragastric administration by the same volume of distilled water.
Astragalus glycosides A, Glycyrrhiza Acid, B, and drugcomposition A+B are factors for evaluation, each factor were set from two levels (level 1=administration, level 2=no), to obtain the orthogonal design. Model groups and normal groups are set.
Measurement data is expressed as x±s, the SAS 9.1.2, DAS 2.1.1 and SPSS16.0 statistical software are used to process data, and single-factor analysis of variance is used for comparisons between multiple groups.

[2] = system: DMN-induced rat liver fibrosis model; test: as above; format: in vivo, Wistar male rats; conditions: result in words; compared with original astragalus soup
[3] = system: rats of bile duct ligation; test: Bile duct ligation (BDL) rat liver fibrosis model; format: in vivo, SD male rats; conditions: BDL 4 weeks; for Hyp (liver tissue Hyp content): intragastric once daily for 3 weeks from week 2; for Hyp (liver tissue Hyp content) / biliary liver fibrosis scores (integral): x±s
Excerpt: Effect of active component compatibility of Astragalus soup of anti-hepatic fibrosis for rats of bile duct ligation
83 SD male rats, SPF grade, weighing 200˜220 g, by the Shanghai Experimental Animal Center of Chinese Academy of Sciences, Certificate of Conformity: SCXK (Shanghai) 2010-0005, fed on the Shanghai Medical University Experimental Animal Center, free access to water.
Model rats (75 rats) are cut along the ventral midline, exposing the common bile duct, conversely injected hardener into hilus hepatis, ligating proximal and distal ends of the common bile duct, cutting the middle, closing the abdomen for 4 weeks. Sham-operated rats (8 rats) only have abdomen cut, and closed after freeing the common bile duct.
Starting from the first day of 2nd week of modeling, the model rats were randomly divided into 5 groups of astragalus soup, A/B combination, A alone, B alone, and UDCA, each group has 12 rats. While continuing modeling, the groups of administration are intervened by eight times of clinical dose amount of a 65 kg adult body weight. Before using, the drug compositions of astragalus soup, A/B combination, A alone, B alone, and UDCA (UDCA: 80 mg·kg^−1·d^−1, ig) are respectively diluted with 10 ml of distilled water, and is processed with intragastric administration according to 10 ml/kg rat body weight dose, once daily for 3 weeks. And sham-operation control rats (8) and model control group (15) are set; rats in the normal group and the model control group are processed with intragastric administration by the same volume of distilled water.
At the end of 4th week, rats are executed to obtain test samples. HE staining and collagen staining of liver tissue, liver tissue Hyp content, serum liver function: ALT, aspartate aminotransferase, AST, and activity of alkaline phosphatase, ALP, albumin, Alb, and total bilirubin, TBil content.

Compound | Hyp (hydroxyproline content in liver tissue) ([1]; DMN modeling 4 weeks, intragastric once daily for 2 weeks from end of week 2, x±s) | hyperplasia stages of rat liver collagen: stage 0 ([1]; number of rats at stage 0, DMN 4 weeks) | hyperplasia stages of rat liver collagen: stage I ([1]; number of rats at stage I, DMN 4 weeks) | hyperplasia stages of rat liver collagen: stage II ([1]; number of rats at stage II, DMN 4 weeks) | hyperplasia stages of rat liver collagen: stage III ([1]; number of rats at stage III, DMN 4 weeks) | BMP-7 mRNA, protein and protein expression of P-Smad1/5/8 in liver tissue ([1]; result in words, liver fibrosis in rat liver tissues by DMN) | serum liver function ALP ([1]; serum, DMN 4 weeks, x±SD) | serum liver function ALT ([1]; serum, DMN 4 weeks, x±SD) | serum liver function AST ([1]; serum, DMN 4 weeks, x±SD) | serum liver function Alb ([1]; serum, DMN 4 weeks, x±SD) | serum liver function TBil ([1]; serum, DMN 4 weeks, x±SD) | reduces generating of TGF-β1 [2] | Hyp (liver tissue Hyp content) [3] | biliary liver fibrosis scores (integral) [3] | serum liver function ALP [3] | serum liver function ALT [3] | serum liver function AST [3] | serum liver function Alb [3] | serum liver function TBil [3]
CC1(C)[C@@H](O[C@H]2O[C@H](C(=O)O)[C@@H](O)[C@H](O)[C@H]2O[C@@H]2O[C@H](C(=O)O)[C@@H](O)[C@H](O)[C@H]2O)CC[C@]2(C)[C@H]3C(=O)C=C4[C@@H]5C[C@@](C)(C(=O)O)CC[C@]5(C)CC[C@@]4(C)[C@]3(C)CC[C@@H]12 [B, Glycyrrhiza Acid] | 595.74 ± 109.74 µg/g | 0 | 0 | 5 | 4 | significantly increase | 38.77 ± 17.84 K/100 ml | 55.18 ± 17.12 U/L | 76.61 ± 14.09^ U/L | 23.11 ± 5.52 g/L | 10.23 ± 5.42 µmol/L | significantly better than the original astragalus soup | 772.00 ± 86.81^$ μg/g, wet liver weight | 6.50 ± 0.84^$ | 77.22 ± 4.05 K/100 ml | 26.66 ± 7.89 U/L | 93.67 ± 14.46 U/L | 25.07 ± 5.18 g/L | 67.35 ± 7.39^$ μmol/L
C[C@H](CCC(=O)O)[C@H]1CC[C@H]2[C@@H]3[C@@H](O)C[C@@H]4C[C@H](O)CC[C@]4(C)[C@H]3CC[C@]12C [UDCA, Ursodeoxycholic acid] |  |  |  |  |  |  |  |  |  |  |  |  | 790.16 ± 129.85^$$ μg/g, wet liver weight | 6.83 ± 0.75^$$ | 79.01 ± 5.80 K/100 ml | 28.79 ± 8.61 U/L | 102.80 ± 26.01 U/L | 24.20 ± 3.64 g/L | 67.60 ± 9.62^$ μmol/L
